The source of these data is patent publication US12319675B2 (Artax Biopharma Inc., priority 2018, dated 2025).

Series [1] can be described thus: Microsomal stability assay, mouse. Type of series: in vitro ADME. Particulars: mouse microsomes, read-out: Microsomal Stability (T1/2 min) Mouse. As to the method:
(§1) Microsomal stability assays were performed using mouse, rat, and human […] according to methods well-known in the art. Microsomal stability results are shown in Table 2 for selected compounds of the invention. The compound numbers correspond to the compound numbers in Table 1. […] “N/A” indicates not assayed.

Series [2] deals with CD3 mediated phosphorylation of ZAP70 in Jurkat cells. Briefly: CD3 mediated phosphorylation of ZAP70 in Jurkat cells (HTRF). Particulars: Homo sapiens, Jurkat cells stimulated with 20 μg/mL anti-CD3 antibody; for Emax: maximum inhibition, read-out: pZAP70 Inhibition - Maximum Percent Inhibition (% Inhibition); for IC50: read-out: pZAP70 Inhibition IC50. Type of series: cell-based. As to the method:
Inhibition of CD3 mediated phosphorylation of ZAP70 in Jurkat cells was measured by a cellular based Homogeneous Time-Resolved Fluorescence (HTRF) assay utilizing a Total ZAP-70 HTRF kit.
Briefly, Jurkat cells (˜1.3×10^6 cells/mL) were harvested on the day of experimentation. Cells were washed with PBS and resuspended in Assay Buffer (RPMI 1640 media plus 10% FBS) and counted.
Jurkat cells were seeded in Assay media at a total volume of 4 μL/well (40K cells/well) in a 384-low volume white flat bottom plate. The cells were then incubated at 37° C./5% CO2 for 30 minutes. The cells were then treated in duplicate with test compounds (3×) and reference compounds (3×) in a total volume of 4 μL, respectively. A compound dilution scheme is exemplified in FIG. 1.
The plate was then transferred to an incubator maintained at 37° C./5% CO2 for 2 minutes. Following incubation, cells were stimulated with 20 μg/mL of anti-CD3 antibody (1 mg/mL stock) and assay media was used to bring the total well volume 4 μL/well. The plate was then transferred to the incubator maintained at 37° C./5% CO2 for 2.5 minutes. Following incubation, 4 μL of lysis buffer (4×) provided in the kit was added to each well. The plate was then incubated at RT for 1 hour with gentle shaking. Following incubation, 4 μL of detection mix was added to each well and the plate was sealed with a plate sealer and left overnight at RT in the dark.
The Envision reader was set-up for Eu^3+ cryptate and fluorescence emission was read at two different wavelengths (620 nm and 665 nm). • Excitation filter: UV2(TRF) 320 nm • Emission filter: 665 nm • 2nd Emission filter: Europium 615 nm • Measurement height (mm): 6.5 • Excitation light (%): 100 • Delay (μs): 50 • Window time (μs): 400 • Time between flashes (μs): 2000 • Number of flashes: 100 • Number of flashes for 2nd detector: 100
The data is represented by the signal form the two wavelengths:
The ratio of the signal is calculated for each individual well:
The data was plotted using Graph Pad Prism. The significance between untreated vs. treated groups was assessed by One-way ANOVA and Bonferroni posttest comparing all columns in the graph.
ZAP70 IC50 results are shown in Table 6 for select compounds of the invention. The compound numbers correspond to the compound numbers in Table 1. […] “ND” indicates not determined.
ZAP70 percent maximum inhibition results are shown in Table 7 for select compounds of the invention. The compound numbers correspond to the compound numbers in Table 1.

The target of series [3] is Nck SH3 domain interaction with the proline rich sequence of TCR subunit CD3ε (Homo sapiens, UniProt P16333). Briefly: Competitive binding, biosensor with Interferometric Optical Detection Method (IODM). The conditions noted are these: ratio of 1:1 between Nck SH3 domain and inhibitors; biotinylated CD3ε peptide on sensing surface. As to the method: Inhibition of Nck SH3 domain interaction with the proline rich sequence of TCR subunit CD3ε was measured by optical read-out of a biosensor based on the Interferometric Optical Detection Method (IODM), using established methods (WO 2010/026269; WO 2014/020159; Laguna, M. et al., Sensors, 2015, 15(8):19819-29; and Holgado, M. et al., Sensors, 2014, 14(2): 3675-89).
Briefly, a Biophotonic Cell (BICELL) based on Fabry-Perot interferometers was used as the photonic transducer. The BICELL was fabricated using SU8 in cyclopentanone according to known methods (e.g., Laguna, M. F. et al., Sensors, 2014, 14(4): 6695-6700). Cured film was then treated with 95% sulfuric acid for 10 seconds. Streptavidin was then immobilized on the sensing surface in phosphate buffered saline (PBS; pH 7.4) over 20 min at 37° C. followed by blocking of the surface with 5% skin milk in PBS (pH 7.4). Biotinylated CD3ε peptide (SEQ ID NO: 001) in PBS (pH 7.4) was incubated with the streptavidin coated film to biofunctionalize the sensing surface (20 min at 37° C.).
Competitive binding assays were performed to determine the affinity reaction of inhibitors. The screening was carried out using a ratio of 1:1 between Nck SH3 domain and inhibitors. The optical readout of the biosensor was accomplished by a Fourier transform visible-infrared (FT-VIS-IR) spectrometer. Competitive binding results are shown in Table 3 for selected compounds of the invention. The compound numbers correspond to the compound numbers in Table 1. Compounds having a designation of “A” provide an Increased Relative Optical Power (ΔIROP) of less than or equal to thirty percent (≤30%); compounds having a designation of “B” provide a ΔIROP of between thirty and fifty percent (>30% to ≤50%); compounds having a designation of “C” provide an ΔIROP of between fifty and seventy percent (>50% to ≤70%); and compounds having a designation of “D” provide a ΔIROP of greater than seventy percent (>70%).

Series [4] in a line: Microsomal stability assay, rat. Format: in vitro ADME. The conditions noted are these: rat microsomes, read-out: Microsomal Stability (T1/2 min) Rat. As to the method:
as §1

Series [5] is described as follows: Microsomal stability assay, human. Type of series: in vitro ADME. The conditions noted are these: human microsomes, read-out: Microsomal Stability (T1/2 min) Human. As to the method:
as §1

A value given as a limit tells only on which side of the number the result lay.

For the molecule `CN1CCN(C(=O)C2=C(c3ccc(F)cc3)c3ccccc3OC2)CC1` [Compound I-44], the half-life in series [1], in series [4] and in series [5] was < 10 min throughout. Further, the Emax in series [2] is 30 to 40%. For the same molecule, the IC50 in series [2] lay in the range of 1 to 10 nM. The “ΔIROP (Increased Relative Optical Power)” value in series [3] is given as “D (a ΔIROP of greater than seventy percent (>70%))”.

On to `COc1ccc2c(c1)C(c1cccc(F)c1)=C(CN1CCCC1)CO2` [Compound I-21], for which the half-life in series [1] was < 10 min; in series [4], < 10 min; in series [5], 10 to 30 min. For the same molecule, the Emax in series [2] lay within 40 to 50%. Further, in series [2], the IC50 lay within 1 to 10 nM. In series [3], the “ΔIROP (Increased Relative Optical Power)” value was “C (an ΔIROP of between fifty and seventy percent (>50% to ≤70%))”.

Consider `CC(C)Oc1ccc2c(c1)C(c1ccc(F)cc1)=C(C(=O)N1CCN(C)CC1)CO2` [Compound I-23], for which the half-life in series [1] is < 10 min; in series [4], 10 to 30 min; in series [5], 10 to 30 min. Further, the Emax in series [2] is > 50%. The IC50 in series [2] fell in the range of 1 to 10 nM. For the same molecule, the “ΔIROP (Increased Relative Optical Power)” value in series [3] is on record as “A (an Increased Relative Optical Power (ΔIROP) of less than or equal to thirty percent (≤30%))”.

With `COc1ccc2c(c1)C(c1ccc(Cl)cc1)=C(CN1CCCC1)CO2` [Compound I-19], the values for the half-life in series [1], in series [4] and in series [5] were < 10 min, < 10 min and 10 to 30 min, respectively. For the same molecule, in series [2], the Emax was > 50%. For the same molecule, in series [2], the concentration for half-maximal inhibition (IC50) lay in the range of 1 to 10 nM. For the same molecule, the “ΔIROP (Increased Relative Optical Power)” value in series [3] is “C (an ΔIROP of between fifty and seventy percent (>50% to ≤70%))”.

Regarding `COc1ccc2c(c1)C(c1ccc(C#N)cc1)=C(CN1CCCC1)CO2` [Compound I-22], the half-life in series [1] was < 10 min; in series [4] it was < 10 min; in series [5] it was 10 to 30 min. Further, the Emax in series [2] is ≤ 30%. Further, in series [3], the “ΔIROP (Increased Relative Optical Power)” value was “B (a ΔIROP of between thirty and fifty percent (>30% to ≤50%))”.

For `COc1ccc2c(c1)C(c1ccc(C#N)cc1)=C(C(=O)N1CCN(C)CC1)CO2` [Compound I-30], the half-life in series [1] was < 10 min; in series [4] it was 10 to 30 min; in series [5], > 30 min. Also, the Emax in series [2] was 40 to 50%. Moreover, the IC50 in series [2] fell in the range of 1 to 10 nM. Moreover, the “ΔIROP (Increased Relative Optical Power)” value in series [3] is “C (an ΔIROP of between fifty and seventy percent (>50% to ≤70%))”.

One may read the IC50 as the midpoint of a concentration-inhibition curve.
